Laboratory results: publication PMC9206686, “Expression, characterization, and activity optimization of a novel cellulase from the thermophilic bacteria Cohnella sp. A01” (Scientific Reports, 2022)

Target: T1, CelC307 (Cohnella sp. A01, UniProt A0A6C0R5L1)
T1 construct: Ni-NTA or heat-shock purified; GH5 domain predicted 77-362; primers imply N-terminus MGDLERL, C-terminus HAGAR before tag
T1 sequence (A0A6C0R5L1 1-491): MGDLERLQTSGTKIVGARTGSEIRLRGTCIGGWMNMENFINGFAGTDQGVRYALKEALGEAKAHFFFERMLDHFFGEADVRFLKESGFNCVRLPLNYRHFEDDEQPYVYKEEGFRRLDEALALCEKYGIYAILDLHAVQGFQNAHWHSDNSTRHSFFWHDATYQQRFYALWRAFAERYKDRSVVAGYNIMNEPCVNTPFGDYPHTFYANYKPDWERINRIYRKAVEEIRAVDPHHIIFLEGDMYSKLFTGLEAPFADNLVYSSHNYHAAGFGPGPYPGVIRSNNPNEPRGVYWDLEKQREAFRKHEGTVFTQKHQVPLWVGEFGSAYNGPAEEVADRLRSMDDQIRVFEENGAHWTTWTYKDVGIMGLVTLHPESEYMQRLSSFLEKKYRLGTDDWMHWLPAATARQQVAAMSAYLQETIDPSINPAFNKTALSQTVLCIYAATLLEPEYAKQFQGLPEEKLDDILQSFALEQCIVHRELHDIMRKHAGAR
Experiment: DNS reducing-sugar assay, Lineweaver-Burk
Type: biochemical
Settings: inhibitor, CMC substrate; […] inhibitor, pH […] °C

How did the inhibition mode (mixed-type) turn out when OC[C@H]1O[C@@H](O[C@H]2[C@H](O)[C@@H](O)C(O)O[C@@H]2CO)[C@H](O)[C@@H](O)[C@H]1O (stereo partly drawn) [lactose] was run?
Its inhibition mode is “the fructose and lactose exhibited the mixed-type inhibition mode”.

OCC1(O)OC[C@@H](O)[C@@H](O)[C@@H]1O (stereo partly drawn) [fructose] was tested. Which inhibition mode (mixed-type) did it give?
Its inhibition mode is “the fructose and lactose exhibited the mixed-type inhibition mode”.

How did the inhibition mode (non-competitive) turn out when OC[C@H]1O[C@H](O[C@H]2[C@H](O)[C@@H](O)C(O)O[C@@H]2CO)[C@H](O)[C@@H](O)[C@@H]1O (stereo partly drawn) [maltose] was run?
The inhibition mode was “the inhibition mode of maltose was non-competitive because the Vmax was reduced”.
